Laboratory results from US8258103B2, “Pesticidal composition” (Sumitomo Chemical Company, Limited, priority 2007, dated 2012).

Assays:
Spodoptera litura [1] = test: Test Example 2: cabbage leaf immersion test, insecticidal rate on fourth-instar larvae; format: in vivo; details: after 2 days
Method: (§1) The theoretical value of an insecticidal (ovicidal) rate obtained by using a mixture of 2 kinds of active ingredients was calculated by the following formula: E=X+Y−(X×Y/100), which conforms to the Colby's formula. X: Insecticidal rate (%) of the active ingredient A at M Ppm Y: Insecticidal rate (%) of the active ingredient B at N ppm E: Theoretical insecticidal rate (%) of combination use of the active ingredient A at M ppm and the active ingredient B at N ppm
(§2) When an actual insecticidal (ovicidal) rate exceeds the theoretical value, it is determined that the used two active ingredients produce a synergetic effect.
(§3) (1) The formulation A was diluted with water to prepare a water dilution having an active ingredient concentration shown in Table 2. To the water dilution, 1/5,000 volume of a spreading agent (Sindain, manufactured by Sumitomo Chemical Takeda Agro Co., Ltd.) was added to prepare a test solution containing the present compound 1.
as §3, with “The” for “(1) The”, “formulation B” for “formulation A”, “compound 2.” for “compound 1.”
(§4) A water dilution of the formulation A and a water dilution of the formulation B were mixed so that the respective active ingredients could reach concentrations shown in Table 2. To the mixture, 1/5,000 volume of a spreading agent (Sindain, manufactured by Sumitomo Chemical Takeda Agro Co., Ltd.) was added to prepare a test solution containing the present compound 1 and the present compound 2.
(§5) (2) A cabbage was planted in a pot and grown until the fourth leaf stage. The leaves of the cabbage were cut off one by one, and then immersed in the above-described test solution for 60 seconds. After air drying, the cabbage leaves were each placed in a cup with a filter paper spread on the bottom. Ten fourth-instar larvae of Spodoptera litura were released into each cup. […] An insecticidal rate was calculated and corrected according to the following formula. Insecticidal rate (%)=100×(Mt−Mc)/(100−Mc)
(§6) Mt: Worm death rate (%) in a section treated with a test compound
(§7) Mc: Worm death rate (%) in a section not treated with a test compound

Spodoptera litura [2] = test: Test Example 1: cabbage leaf immersion test, insecticidal rate on fourth-instar larvae; format: in vivo; details: for Found value of insecticidal rate (%): after 2 days
Method: as §1, §2
(1) 12 parts of spinetoram as the present compound 1, 35 parts of a carrier on which a polyoxyethylene alkyl ether sulfate ammonium salt and white carbon in a weight ratio of 1:1 were adsorbed, and 53 parts of water were mixed, and finely milled by a wet milling method to obtain a spinetoram formulation (hereinafter, referred to as the formulation A).
(2) A flowable formulation containing 10 parts of pyridalyl, which is the present compound 2, as the active ingredient (trade name: PLEO flowable, manufactured by Sumitomo Chemical Co., Ltd.) (hereinafter, referred to as the formulation B) was used.
as §3, with “(3)” for “(1)”, “1.” for “2.”, “1. The formulation B was diluted with water to prepare a water dilution having an active ingredient concentration shown in Table 1. To the water dilution, 1/5,000 volume of a spreading agent (Sindain, manufactured by Sumitomo Chemical Takeda Agro Co., Ltd.) was added to prepare a test solution containing the present compound 2.” for “1.”
as §4, with “Table 1.” for “Table 2.”
as §5, with “(4)” for “(2)”, “formula.” for “formula. Insecticidal rate (%)=100×(Mt−Mc)/(100−Mc)”
Insecticidal rate (%)=100×(Mt−Mc)/(100−Mc)
as §6, §7

Row | Compound | Found value of insecticidal rate (%) (Spodoptera litura [1]; 0.25 ppm single ingredient) | Found value of insecticidal rate (%) (Spodoptera litura [1]; 2.5 ppm single ingredient) | Theoretical value of insecticidal rate (%) (Spodoptera litura [2]; 2.5 ppm single ingredient) | Found value of insecticidal rate (%) (Spodoptera litura [2]; 2.5 ppm single ingredient) | Theoretical value of insecticidal rate (%) (Spodoptera litura [2]; 0.73 ppm single ingredient) | Found value of insecticidal rate (%) (Spodoptera litura [2]; 0.73 ppm single ingredient) | Theoretical value of insecticidal rate (%) (Spodoptera litura [2]; 2.9 ppm single ingredient) | Found value of insecticidal rate (%) (Spodoptera litura [2]; 2.9 ppm single ingredient)
1 | FC(F)(F)c1ccc(OCCCOc2c(Cl)cc(OCC=C(Cl)Cl)cc2Cl)nc1 [Pyridalyl (present compound 2), 2,6-dichloro-4-(3,3-dichloroallyloxy)phenyl 3-[5-(trifluoromethyl)-2-pyridyloxy]propyl ether] | 0 | 16.7 | 0 | 0 |  |  |  | 
2 | spinetoram [Spinetoram (present compound 1)] | 0 | 0 |  |  | 0 | 0 | 0 | 0
